The values that follow come from ChEMBL document CHEMBL1201862, “PubChem BioAssay data set” (2004).

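Test compounds were applied to cells in 96-well plates for 48 hours at 5 doses. Abbreviation: GI50, concentration required for 50% inhibition of growth.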 Active and inactive are the calls of the source. Cut-off read from the data, not from the text of the source: active = GI50 up to about 1.1 µM and inactive = higher. Where a SMILES comes first, the peptide text is derived from it. The star is where a group is joined. Cbz = O=C(OCc1ccccc1)*

Some test systems named below: OVCAR-5; HCT-116; HCT-15; SNB-19; HOP-62; CAKI-1; Hs-578T; RPMI-8226; LOX IMVI; IGROV-1; A498; MDA-MB-231; U-251; ACHN; NCI-H522; BT-549; CCRF-CEM; 786-0.
Assay in all cases: NCI-60 cell line screen, 48 h

With `CCCc1cc(=O)oc2c3c(c4c(c12)OC(C)(C)C=C4)O[C@@H](C)[C@H](C)C3=O`, the GI50 in the experiment with OVCAR-5 was 17.9 µM (inactive); in the experiment with HCT-116, 10.4 µM (inactive); in the experiment on HCT-15, 15 µM; with SNB-19, 17.8 µM (inactive); in the experiment on HOP-62 it was 18.5 µM (inactive); in the experiment on CAKI-1 it was 28.9 µM (inactive). The GI50 in the experiment with Hs-578T was 15.3 µM (inactive); in the experiment with RPMI-8226, 3.83 µM (inactive); in the experiment on LOX IMVI it was 18.7 µM (inactive); in the experiment with IGROV-1, 12.9 µM (inactive); in the experiment with A498, 14.7 µM (inactive); with MDA-MB-231, 11.8 µM (inactive). Besides, the GI50 with U-251 was 23.4 µM (inactive); in the experiment with ACHN, 12.4 µM (inactive); in the experiment with NCI-H522, 13.6 µM (inactive); with BT-549, 13.7 µM (inactive); in the experiment with CCRF-CEM it was 15.1 µM (inactive); in the experiment with 786-0, 16.9 µM (inactive).

Regarding `Cc1[nH]c(-c2ccccc2)c(-c2ccc(Cl)cc2)c1C(=O)ONC(=O)c1ccccc1`, the GI50 was 5.07 µM (inactive) in the experiment with OVCAR-5; 2.11 µM (inactive) in the experiment on HCT-116; 6.17 µM with HCT-15; 4.86 µM (inactive) in the experiment with SNB-19; 2.07 µM (inactive) in the experiment on HOP-62; 2.44 µM (inactive) with CAKI-1. The GI50 is 2.26 µM (inactive) with Hs-578T; 3.02 µM (inactive) with RPMI-8226; 1.39 µM (inactive) in the experiment with LOX IMVI; 1.16 µM (inactive) in the experiment on IGROV-1; 6.24 µM (inactive) in the experiment on A498; 3.64 µM (inactive) in the experiment with MDA-MB-231. Further, the GI50 was 1.78 µM (inactive) with U-251; 1.77 µM (inactive) in the experiment on ACHN; 2.1 µM (inactive) in the experiment on NCI-H522; 2.56 µM (inactive) in the experiment on BT-549; 1.75 µM (inactive) in the experiment on CCRF-CEM; 1.9 µM (inactive) in the experiment with 786-0.

For the compound `Cc1ccc(/C=C2\NC(=S)N(CN3CCCCC3)C2=O)cc1`, the GI50 was > 100 µM (inactive) in the experiment with OVCAR-5; 36.6 µM (inactive) with HCT-116; 36.1 µM in the experiment on HCT-15; 55.5 µM (inactive) in the experiment on SNB-19; > 100 µM (inactive) in the experiment on HOP-62; 41.4 µM (inactive) in the experiment with Hs-578T. Further, the GI50 with RPMI-8226 is 32.2 µM (inactive); with LOX IMVI it was 34.4 µM (inactive); in the experiment with IGROV-1 it was > 100 µM (inactive); in the experiment on A498, 41.3 µM (inactive); in the experiment on MDA-MB-231 it was > 100 µM (inactive); with U-251, 48.6 µM (inactive). Besides, the GI50 in the experiment with ACHN is 43.2 µM (inactive); in the experiment with NCI-H522, 35.8 µM (inactive); in the experiment with CCRF-CEM, 12.4 µM (inactive); in the experiment on 786-0 it was 47.3 µM (inactive).

Consider `Nc1nc(NNc2cccc(F)c2)cc(=O)[nH]1`, for which the GI50 in the experiment with OVCAR-5 was > 100 µM (inactive); with HCT-116 it was 24 µM (inactive); in the experiment on HCT-15 it was 42.5 µM; in the experiment with SNB-19 it was 65.2 µM (inactive); in the experiment with HOP-62, 25 µM (inactive); in the experiment on Hs-578T, 36.8 µM (inactive). Besides, the GI50 in the experiment on RPMI-8226 is 32.2 µM (inactive); in the experiment on LOX IMVI, 21.1 µM (inactive); in the experiment on IGROV-1, 61.9 µM (inactive); with A498, > 100 µM (inactive); in the experiment with MDA-MB-231, 42.2 µM (inactive); in the experiment on U-251, 20.7 µM (inactive). Besides, the GI50 in the experiment on ACHN was 43.6 µM (inactive); in the experiment on BT-549, 77.1 µM (inactive); in the experiment with CCRF-CEM, 43.5 µM (inactive); with 786-0, 18.8 µM (inactive).

Take `CS(=O)(=O)CC1=Nc2nnc(CCCCCCCc3nnc4n3C(=O)C(CS(C)(=O)=O)=N4)n2C1=O`: the GI50 in the experiment on OVCAR-5 was > 100 µM (inactive); with HCT-116, > 100 µM (inactive); in the experiment with HCT-15 it was more than 100 µM; with SNB-19, > 100 µM (inactive); in the experiment on HOP-62, > 100 µM (inactive); with CAKI-1, > 100 µM (inactive). Besides, the GI50 in the experiment on RPMI-8226, in the experiment with LOX IMVI, in the experiment on IGROV-1, in the experiment with A498, in the experiment with U-251 and with ACHN was > 100 µM (inactive) throughout. The GI50 with NCI-H522, with CCRF-CEM and in the experiment on 786-0 was > 100 µM (inactive) each time.

As to `N#Cc1nc(C(=O)c2ccccc2)oc1N`, the GI50 with OVCAR-5 was > 100 µM (inactive); with HCT-116, > 100 µM (inactive); in the experiment with HCT-15, more than 100 µM; in the experiment with SNB-19, > 100 µM (inactive); in the experiment on HOP-62, > 100 µM (inactive); with CAKI-1 it was > 100 µM (inactive). In addition, the GI50 in the experiment with Hs-578T was 20.9 µM (inactive); in the experiment with RPMI-8226, > 100 µM (inactive); with LOX IMVI it was > 100 µM (inactive); with IGROV-1, 64.9 µM (inactive); in the experiment with A498, > 100 µM (inactive); in the experiment with MDA-MB-231, > 100 µM (inactive). The GI50 with U-251, in the experiment on ACHN, with CCRF-CEM and in the experiment with 786-0 was > 100 µM (inactive) in each case.

`CCCNC(=O)Nc1ccc2c(c1)Cc1cc(N(CCCl)CCCl)ccc1-2`: the GI50 in the experiment with OVCAR-5 is 76 µM (inactive); in the experiment on HCT-116, 49.9 µM (inactive); in the experiment on HCT-15, 16.5 µM; with SNB-19, 19.2 µM (inactive); in the experiment on HOP-62, 81.5 µM (inactive); in the experiment on CAKI-1, 22.4 µM (inactive). For the same compound, the GI50 in the experiment on Hs-578T was 25.6 µM (inactive); in the experiment with RPMI-8226 it was 25.4 µM (inactive); in the experiment with LOX IMVI, 12.2 µM (inactive); in the experiment on IGROV-1, 14.1 µM (inactive); with A498, 10.6 µM (inactive); in the experiment on MDA-MB-231, 28.4 µM (inactive). Besides, the GI50 with U-251 was 18 µM (inactive); in the experiment with ACHN it was 5.47 µM (inactive); with NCI-H522, 17.6 µM (inactive); in the experiment with BT-549, 22 µM (inactive); with CCRF-CEM, 58.3 µM (inactive); in the experiment with 786-0, 34.6 µM (inactive).

`COc1ccc(C2C3=C(COC3=O)Oc3cc4c(cc32)OCO4)c(OC)c1` (stereo unspecified): the GI50 in the experiment with OVCAR-5 is 43.5 µM (inactive); in the experiment with HCT-116, 6.24 µM (inactive); in the experiment with HCT-15 it was 5.73 µM; in the experiment on SNB-19, 37.8 µM (inactive); in the experiment with HOP-62, 30.3 µM (inactive); with CAKI-1, 18.6 µM (inactive). The GI50 was 13.6 µM (inactive) in the experiment on Hs-578T; 7.74 µM (inactive) with RPMI-8226; 4.31 µM (inactive) in the experiment with LOX IMVI; 12.9 µM (inactive) in the experiment on IGROV-1; 16.1 µM (inactive) in the experiment with A498; 9.04 µM (inactive) in the experiment on MDA-MB-231. Further, the GI50 in the experiment on U-251 was 19.3 µM (inactive); with ACHN it was 19.9 µM (inactive); in the experiment on BT-549 it was 22.9 µM (inactive); in the experiment with CCRF-CEM, 11.1 µM (inactive); with 786-0 it was 21.7 µM (inactive).

On to `CCOC(=O)[C@@H]1OC(c2ccccc2)O[C@H]1C(=O)OCC`, for which the GI50 is > 100 µM (inactive) in the experiment on OVCAR-5; > 100 µM (inactive) with HCT-116; more than 100 µM with HCT-15; > 100 µM (inactive) in the experiment with SNB-19; > 100 µM (inactive) in the experiment with HOP-62; > 100 µM (inactive) in the experiment on Hs-578T. In addition, the GI50 in the experiment with RPMI-8226, in the experiment on LOX IMVI, in the experiment with IGROV-1, in the experiment on A498, in the experiment on MDA-MB-231 and in the experiment on U-251 was > 100 µM (inactive) throughout. The GI50 with ACHN, with CCRF-CEM and in the experiment with 786-0 was > 100 µM (inactive) each time.

Turning to `CC(C)(C)c1cc(/C=C/C(=O)CC(=O)/C=C/c2cc(C(C)(C)C)c(O)c(C(C)(C)C)c2)cc(C(C)(C)C)c1O`, the GI50 was > 50 µM (inactive) in the experiment with OVCAR-5; > 50 µM (inactive) in the experiment with HCT-116; more than 50 µM in the experiment on HCT-15; > 50 µM (inactive) in the experiment on SNB-19; > 50 µM (inactive) in the experiment on HOP-62; > 50 µM (inactive) in the experiment on Hs-578T. Further, the GI50 in the experiment on RPMI-8226, in the experiment on LOX IMVI, in the experiment with IGROV-1, in the experiment on MDA-MB-231, in the experiment with U-251 and in the experiment with ACHN was > 50 µM (inactive) each time. In addition, the GI50 with NCI-H522, in the experiment with BT-549, with CCRF-CEM and in the experiment with 786-0 was > 50 µM (inactive) throughout.

Regarding `NC1=NC(=O)[C@H](CSCc2ccccc2)N1C(=O)OCc1ccccc1`, the GI50 with OVCAR-5 is > 100 µM (inactive); with HCT-116, > 100 µM (inactive); with HCT-15, more than 100 µM; in the experiment on SNB-19 it was > 100 µM (inactive); in the experiment with HOP-62, > 100 µM (inactive); in the experiment with CAKI-1, > 100 µM (inactive). The GI50 in the experiment on Hs-578T, with LOX IMVI, in the experiment on IGROV-1, in the experiment on A498, in the experiment on MDA-MB-231 and in the experiment with U-251 was > 100 µM (inactive) in each case. In addition, the GI50 with ACHN, with NCI-H522, in the experiment with BT-549 and in the experiment with 786-0 was > 100 µM (inactive) each time.

Take `CCOC(=O)CCC(NC(=O)CNC(=O)CNC(=O)C(CCC(=O)OCC)NC(=O)C(CCC(=O)OCC)NC(=O)C(CCC(=O)OCC)NC(=O)OCc1ccccc1)C(=O)NC(CCC(=O)OCC)C(=O)NC(CCC(=O)OCC)C(=O)OCC` (stereo unspecified) (Cbz-E(OEt)E(OEt)E(OEt)GGE(OEt)E(OEt)E(OEt)-OEt; configuration not given here): the GI50 is > 75 µM (inactive) in the experiment on OVCAR-5; > 75 µM (inactive) in the experiment on HCT-116; more than 75 µM with HCT-15; > 75 µM (inactive) in the experiment on SNB-19; > 75 µM (inactive) in the experiment with CAKI-1; > 75 µM (inactive) in the experiment on Hs-578T. For the same compound, the GI50 in the experiment on RPMI-8226, in the experiment on LOX IMVI, in the experiment with IGROV-1, in the experiment with MDA-MB-231, in the experiment with U-251 and in the experiment with ACHN was > 75 µM (inactive) throughout. Further, the GI50 in the experiment on NCI-H522, in the experiment on CCRF-CEM and with 786-0 was > 75 µM (inactive) each time.
